Measurements reported in PubChem BioAssay AID602446 (National Center for Advancing Translational Sciences (NCATS), 2012).

Tested on: Caco-2 permeability efflux ratio
Assay: High Content Assay for Compounds that inhibit the Assembly of the Perinucleolar Compartment: Efflux Ratio
Source text: The perinucleolar compartment (PNC) is a non-membrane-bound nuclear subdomain that is associated with but structurally distinct from the nucleolus. The PNC is a heritable trait, in which the number of PNCs per cell in daughter cells often mimics that of their mother cells. The PNC is heterogeneous in shape, is stable through interphase, disassembles during mitosis, and reassembles in early G1. The PNC is concentrated with newly synthesized RNA polymerase III (pol III) RNAs (MRP RNA, RNAse P H1 RNA, hY RNAs[hY1, 2, 5], Alu RNA, and SRP [7SL] RNA) and RNA binding proteins (nucleolin, PTB, CUG-BP, KSRP, Raver1, Raver2, and Rod).
In collaboration between Sui Huang from Northwestern University and the NCGC, a high content assay was developed and screened. The hits were then tested in follow-up assays. High-content tumor cell migration assays in 3-dimensional extracellular matrices are powerful tools for modeling and understanding the biology of this critical step in the process of metastasis. However, most of the available methods are not amenable to the throughput required by studies of comparative pharmacology or small scale screening. […]
8. […] The T0, LY and T90, LY plates are read by FlexStation 3 at excitation of 485 nm and emission of 535 nm to determine LY permeability. […]

Compound: N=c1c2c(-c3ccccc3)c(-c3ccccc3)n(Cc3ccccc3)c2ncn1C1CCC(O)CC1 (stereo unspecified)
- efflux ratio: 11
